Source: ChEMBL document CHEMBL1149631, “Synthesis of 3,8,9-trisubstituted-1,7,9-triaza-fluorene-6-carboxylic acid derivatives as a new class of insulin secretagogues” (Bioorg Med Chem, 2007)
Activity calls are given as the source filed them. The rule behind the calls is not given here.

Tests used:
[1] = Effect on glucose-dependent insulin secretion activity per ug of total protein in rat RIN5F cells at 1 uM after 30 mins; format: functional
[2] = Effect on glucose-dependent insulin secretion activity per ug of total protein in rat RIN5F cells at 10 uM after 30 mins; format: functional
[3] = Effect on glucose-dependent insulin secretion activity per ug of total protein in rat RIN5F cells at 0.1 uM after 30 mins; format: functional
[4] = species: Oryctolagus cuniculus; test: Displacement of [3H]idazoxan from I2-imidazoline binding site in rabbit kidney membrane upto 100 uM; format: cell membranes
[5] = species: Rattus norvegicus; test: Displacement of [3H]clonidine from alpha2-AR in cerebral cortex of rat brain upto 100 uM; format: tissue-based
[6] = species: Bos taurus; test: Displacement of [3H]clonidine from I1-imidazoline binding site in bovine adrenal medulla plasma membrane upto 100 uM; format: tissue-based
[7] = Displacement of [3H]idazoxan from I2-imidazoline binding site in rabbit kidney membrane; format: cell membranes, Oryctolagus cuniculus
[8] = Displacement of [3H]clonidine from I1-imidazoline binding site in bovine adrenal medulla plasma membrane; format: tissue-based, Bos taurus
[9] = Displacement of [3H]clonidine from alpha-2-adrenoceptor in cerebral cortex of rat brain; format: tissue-based
[10] = Effect on insulin secretion activity per ug of total protein in rat RIN5F cells at 0.1 uM after 30 mins; format: functional
[11] = Effect on insulin secretion activity per ug of total protein in rat RIN5F cells at 1 uM after 30 mins; format: functional

Structure (SMILES)	Activity [1] [pg/µg/h]	Activity [2] [pg/µg/h]	Activity [3] [pg/µg/h]	Activity [4]	Activity [5]	Activity [6]	Ki [7] [nM]	Ki [8] [nM]	Ki [9] [nM]	Activity [10] [pg/µg/h]	Activity [11] [pg/µg/h]
COC(=O)c1cc2c3cc(C)cnc3n(C)c2c(Cc2ccccc2)n1	16.1	16.9	15.9	inactive	inactive	inactive	–	–	–	–	–
Cc1nccc2c1[nH]c1ccccc12 [HARMAN]	27	37	20	–	–	–	54	36	> 12000	–	–
Cc1cnc2c(c1)c1cc(C(=O)O)nc(Cc3ccccc3)c1n2C	28.1	38.3	20	inactive	inactive	inactive	–	–	–	–	–
COC(=O)C1Cc2c(n(C)c3ncc(C)cc23)C(Cc2ccccc2)N1 (stereo not drawn)	15.9	16.8	15.1	inactive	inactive	inactive	–	–	–	–	–
CCCCNC(=O)NS(=O)(=O)c1ccc(C)cc1 [TOLBUTAMIDE]	27.1	–	19.9	–	–	–	–	–	–	19.6	26
